Activity calls are given as the source filed them. How the calls were made is not given here.
Tests used:
[1] = target: T1, Ferrochelatase, mitochondrial (Homo sapiens) (UniProt P22830); conditions: at 10 µM
T1 sequence (whole entry): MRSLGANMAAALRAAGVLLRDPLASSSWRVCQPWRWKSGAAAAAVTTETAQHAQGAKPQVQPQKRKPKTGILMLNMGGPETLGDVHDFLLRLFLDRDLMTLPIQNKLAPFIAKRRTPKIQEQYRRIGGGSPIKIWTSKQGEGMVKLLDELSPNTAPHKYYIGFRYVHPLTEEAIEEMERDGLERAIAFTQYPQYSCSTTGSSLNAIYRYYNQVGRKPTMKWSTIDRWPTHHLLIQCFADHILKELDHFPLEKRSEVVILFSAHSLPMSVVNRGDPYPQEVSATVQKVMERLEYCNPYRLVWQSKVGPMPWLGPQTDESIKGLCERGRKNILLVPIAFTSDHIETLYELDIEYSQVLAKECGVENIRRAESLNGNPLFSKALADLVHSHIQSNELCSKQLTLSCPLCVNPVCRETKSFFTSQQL
Description: Compound was evaluated for the inhibition of human FECH at 10uM

[2] = target: T2, Porphobilinogen deaminase (Homo sapiens) (UniProt P08397); conditions: at 100 µM
T2 sequence (whole entry): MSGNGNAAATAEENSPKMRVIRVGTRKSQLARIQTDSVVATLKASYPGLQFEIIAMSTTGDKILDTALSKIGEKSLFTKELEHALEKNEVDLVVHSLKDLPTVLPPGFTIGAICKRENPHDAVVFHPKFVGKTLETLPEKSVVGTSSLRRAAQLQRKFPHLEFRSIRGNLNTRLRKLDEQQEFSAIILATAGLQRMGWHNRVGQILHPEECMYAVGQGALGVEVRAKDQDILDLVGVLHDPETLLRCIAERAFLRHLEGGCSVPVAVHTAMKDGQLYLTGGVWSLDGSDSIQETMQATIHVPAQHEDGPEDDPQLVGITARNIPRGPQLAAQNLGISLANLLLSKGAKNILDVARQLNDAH
Description: Compound was evaluated for the inhibition of human HMBS at 100uM

## N#CCN(CCCCN1CCN(c2ccc(F)cc2)CC1)C(=O)OCc1ccccc1
[1]
  inhibition: inactive
[2]
  inhibition: inactive

## O=C(NCCc1c[nH]c2ccccc12)c1cc2ccccc2oc1=O
[1]
  inhibition: inactive
[2]
  inhibition: inactive

## O=C([C@@H](c1ccc(Cl)cc1)c1cccnc1)N1CCN(c2ccc(C(F)(F)F)cc2)CC1
[1]
  inhibition: inactive
[2]
  inhibition: inactive

## Cc1nc2ccccn2c1C(=O)NCc1ccc(Cl)cc1
[1]
  inhibition: inactive
[2]
  inhibition: inactive

## CC(C)(C)n1nc(Cc2cccc3ccccc23)c2c(N)ncnc21
[1]
  inhibition: inactive
[2]
  inhibition: inactive

## COc1ccc(C2=NN(C3CCCCCC3)C(=O)[C@@H]3CC=CC[C@H]23)cc1OCCCCOc1ccc(-c2nnn[nH]2)cc1
[1]
  inhibition: inactive
[2]
  inhibition: inactive

## CCNC(=O)C(C)Nc1nc(-c2cccnc2)nc2sc(C)c(C)c12 (stereo not given)
[1]
  inhibition: inactive
[2]
  inhibition: inactive

## N=C(N)Nc1ccc(-c2ccc(-c3ccc(N=C(N)N)c(Cl)c3)o2)cc1Cl
[1]
  inhibition: inactive
[2]
  inhibition: inactive

## CNC(=O)CNc1nc(-c2ccccn2)nc2scc(-c3ccccc3)c12
[1]
  inhibition: inactive
[2]
  inhibition: inactive

## CCN(CC)S(=O)(=O)c1ccc(Cl)c(C(=O)Nc2ccc3nc(C)sc3c2)c1
[1]
  inhibition: inactive
[2]
  inhibition: inactive

## COc1cc(Br)cc2cc(C(=O)Nc3cccc(C(F)(F)F)c3)c(=O)oc12
[1]
  inhibition: inactive
[2]
  inhibition: inactive

## O=C(CCC1CCCCC1)Nc1cccc(-c2nnc(-c3ccco3)o2)c1
[1]
  inhibition: inactive
[2]
  inhibition: inactive

## O=C(Cn1ccnc1[N+](=O)[O-])NCc1ccccc1
[1]
  inhibition: inactive
[2]
  inhibition: inactive

## Cc1ccc2oc(-c3cc(NC(=O)Cc4ccccc4)ccc3Cl)nc2c1
[1]
  inhibition: inactive
[2]
  inhibition: inactive

## Cc1[nH]c2cc(F)cc(F)c2c(=O)c1-c1ccc(Oc2ccc(OC(F)(F)F)cc2)cc1
[1]
  inhibition: inactive
[2]
  inhibition: inactive

## FC(F)(F)c1nnc2ccc(Cl)nn12
[1]
  inhibition: inactive
[2]
  inhibition: inactive

## Cc1nn(C)c(C)c1NS(=O)(=O)c1c(Cl)cc(-c2ccnc(N3CCNCC3)c2)cc1Cl
[1]
  inhibition: inactive
[2]
  inhibition: inactive

## CN(C(=O)c1cc2c(-c3cncnc3)cccc2[nH]1)c1ccccc1
[1]
  inhibition: inactive
[2]
  inhibition: inactive

## Cc1nc(-c2cccc(NCc3ccccc3)c2)[nH]c1C
[1]
  inhibition: inactive
[2]
  inhibition: inactive

## N=C(N)Nc1ccc(-c2ccc(-c3ccc(NC(=N)N)cc3Cl)o2)c(Cl)c1
[1]
  inhibition: inactive
[2]
  inhibition: inactive

## CC(C)(C)c1ccc(N[C@@H]2CCCC[C@H]2NC(=O)c2ccco2)cc1
[1]
  inhibition: inactive
[2]
  inhibition: inactive

## CN1CCN(c2cc(-c3ccc(F)cc3)nc(-c3ccncc3)n2)CC1
[1]
  inhibition: inactive
[2]
  inhibition: inactive

## COc1ccc(N(CCc2cccc(C)n2)C(C)=O)cc1
[1]
  inhibition: inactive
[2]
  inhibition: inactive

## CC(=O)NC[C@@H]1CN(c2ccc(N3CCOCC3)c(F)c2)C(=O)O1
[1]
  inhibition: inactive
[2]
  inhibition: inactive

## Cc1ccc(-c2nc(CN(Cc3ccccn3)C(C)C)cs2)o1
[1]
  inhibition: inactive
[2]
  inhibition: inactive

## COc1ccc(C2(C(=O)Nc3ccc(Br)cc3)CCCC2)cc1
[1]
  inhibition: inactive
[2]
  inhibition: inactive

## Nc1nc2cc(-c3cncc(Oc4ccc(F)cc4)c3)ccc2[nH]1
[1]
  inhibition: inactive
[2]
  inhibition: inactive

## CCCCc1ccc(C(=O)Nc2nccc3ccccc23)nc1
[1]
  inhibition: inactive
[2]
  inhibition: inactive

## CC(=O)N(CCN(C(=O)c1ccc(F)cc1)c1ccccc1)c1ccccc1
[1]
  inhibition: inactive
[2]
  inhibition: inactive

## O=C(NC1=NCCS1)c1sc2cc(F)ccc2c1Cl
[1]
  inhibition: inactive
[2]
  inhibition: inactive

## C[C@H]1c2cccc(O)c2C(=O)C2=C(O)[C@]3(O)C(=O)C(C(N)=O)=C(O)[C@@H](N(C)C)[C@@H]3[C@@H](O)[C@@H]21
[1]
  inhibition: inactive
[2]
  inhibition: inactive

## CCCCOC(=O)Nc1cc2nc(C3CCCCC3)[nH]c2cc1N1CCCC1
[1]
  inhibition: inactive
[2]
  inhibition: inactive

## Cc1nnc(NCc2cccc(Cl)c2)c2ccccc12
[1]
  inhibition: inactive
[2]
  inhibition: inactive

## CO[C@H]1/C=C\O[C@@]2(C)Oc3c(C)c(O)c4c(O)c(/c(=C/NN5CCN(C)CC5)c(O)c4c3C2=O)=N\C(=O)/C(C)=C\C=C/[C@H](C)[C@H](O)[C@@H](C)[C@@H](O)[C@@H](C)[C@H](OC(C)=O)[C@@H]1C
[1]
  inhibition: inactive
[2]
  inhibition: inactive

## Cc1nn(C(=O)Nc2cccc(C(F)(F)F)c2)c(C)c1Sc1ncccn1
[1]
  inhibition: inactive
[2]
  inhibition: inactive

## CC1COC(Cn2cncn2)(c2ccc(Oc3ccc(Cl)cc3)cc2Cl)O1 (stereo not given)
[1]
  inhibition: inactive
[2]
  inhibition: inactive

## Cc1cc(NCC(C)C)c2[nH]nc(-c3ccccc3)c2n1
[1]
  inhibition: inactive
[2]
  inhibition: inactive

## CN1CCN(S(=O)(=O)c2ccc(-c3ccc4c(Nc5ccc6nn[nH]c6c5)ccnc4c3)cc2)CC1
[1]
  inhibition: inactive
[2]
  inhibition: inactive

## Cc1cccc(NC(=O)c2cc(S(=O)(=O)N(C)c3ccc(F)cc3)ccc2Cl)n1
[1]
  inhibition: inactive
[2]
  inhibition: inactive

## Cc1ccc2c(c1C)NC(=O)C21NN=C(c2ccccc2)S1 (stereo not given)
[1]
  inhibition: inactive
[2]
  inhibition: inactive

## COc1ccc(C2=NN(C3CCCCCC3)C(=O)C2(C)C)cc1OCc1ccccn1
[1]
  inhibition: inactive
[2]
  inhibition: inactive

## NC(=O)c1cc(Br)ccc1OCCOc1ccccc1
[1]
  inhibition: inactive
[2]
  inhibition: inactive

## Nc1c2c(nc3sc4c(c13)CCCC4)CCCC2
[1]
  inhibition: inactive
[2]
  inhibition: inactive

## COC(=O)Nc1nc2cc(C(=O)c3ccccc3)ccc2[nH]1
[1]
  inhibition: inactive
[2]
  inhibition: inactive

## Cc1nc(-c2ccccn2)nc(N(C)CCc2ccccc2)c1Cl
[1]
  inhibition: inactive
[2]
  inhibition: inactive

## Nc1nccc2ccc(Oc3ccncc3)cc12
[1]
  inhibition: inactive
[2]
  inhibition: inactive

## COc1nc2ccc(Br)cc2cc1[C@@H](c1ccccc1)[C@@](O)(CCN(C)C)c1cccc2ccccc12
[1]
  inhibition: inactive
[2]
  inhibition: inactive

## CCc1c(C)nc(-n2nc(C)cc2NC(=O)c2ccccc2SC)[nH]c1=O
[1]
  inhibition: inactive
[2]
  inhibition: inactive

## COc1ccc(OC(C)C(=O)Nc2ccc(Cl)cc2C)cc1 (stereo not given)
[1]
  inhibition: inactive
[2]
  inhibition: inactive

## Nc1ncnc2c1c(Cc1cccc3ccccc13)nn2CC1CCNCC1
[1]
  inhibition: inactive
[2]
  inhibition: inactive

## CC(C)(C)n1nc(-c2ccccc2)c2c(N)ncnc21
[1]
  inhibition: inactive
[2]
  inhibition: inactive

## c1ccc(-c2[nH]c3ccccc3c2C(c2ccccn2)N2CCCC2)cc1 (stereo not given)
[1]
  inhibition: inactive
[2]
  inhibition: inactive

## CC1CS(=O)(=O)CCN1/N=C/c1ccc([N+](=O)[O-])o1 (stereo not given)
[1]
  inhibition: inactive
[2]
  inhibition: inactive

## C[C@H](C(N)=O)N1CCCC[C@@H]1c1ccc(OCc2cccc(F)c2)cc1
[1]
  inhibition: inactive
[2]
  inhibition: inactive

## CC(c1cc(Cl)cc(Cl)c1)N(C)c1ncc2c(N)nc(N)nc2n1 (stereo not given)
[1]
  inhibition: inactive
[2]
  inhibition: inactive

## Cc1ccc(-c2cc(C(=O)Nc3cccnc3)c3cc(Br)ccc3n2)cc1
[1]
  inhibition: inactive
[2]
  inhibition: inactive

## c1ccc(Oc2ccc(-c3cc(CN4CCOCC4)[nH]n3)cc2)cc1
[1]
  inhibition: inactive
[2]
  inhibition: inactive

## NC(CC(=O)c1ccc(Cl)cc1Cl)C(Cl)(Cl)Cl (stereo not given)
[1]
  inhibition: inactive
[2]
  inhibition: inactive

## O=C(Nc1nc(-c2ccccn2)cs1)c1cncn1-c1ccccc1
[1]
  inhibition: inactive
[2]
  inhibition: inactive

## CCc1nc2ccc(Cl)cn2c1C(=O)NCc1ccc(N2CCC(c3ccc(OC(F)(F)F)cc3)CC2)cc1
[1]
  inhibition: inactive
[2]
  inhibition: inactive

## CC(C)c1ncc(-c2ccncc2)c([C@H]2CC[C@H](CNC(=O)c3cccnc3)CC2)n1
[1]
  inhibition: inactive
[2]
  inhibition: inactive

## CNC1C(OC2C(OC3C(O)C(O)C(N=C(N)N)C(O)C3N=C(N)N)OC(C)C2(O)C=O)OC(CO)C(O)C1O (stereo not given)
[1]
  inhibition: inactive
[2]
  inhibition: inactive

## CCn1ncc2c(NC3CCOCC3)c(CNC(=O)c3ccnn3C)c(C)nc21
[1]
  inhibition: inactive
[2]
  inhibition: inactive

## CO/C=C(/C(=O)OC)c1ccccc1Oc1cc(Oc2ccccc2C#N)ncn1
[1]
  inhibition: inactive
[2]
  inhibition: inactive

## Cc1nnc(NC(=O)c2cn(-c3ccccc3)nc2-c2ccccc2C)o1
[1]
  inhibition: inactive
[2]
  inhibition: inactive

From ChEMBL document CHEMBL3987221, “The Australian National University Dept Of Immunology Pathogen Box Compounds Screened” (2018)
